Among the data in PubChem BioAssay (NCI) are TGI and GI50 values, retold here.

Values joined by “and” are separate entries in the source; they are usually repeats but may differ in a detail not shown here. Identical values can stand only once.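 96-well plates; 48 h exposure; 5 concentrations. Endpoints by linear interpolation between flanking doses. Not reached: highest tested concentration assigned. The concentration for 50% growth inhibition is given as GI50. TGI denotes the concentration required for complete inhibition of growth.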

The first assay concerns SF-268 CNS. The assay is described as follows: NCI anticancer screen, dose series, 48 h.
Take `COc1ccc(-c2coc3c4c(ccc3c2=O)OCO4)cc1OC`: the TGI is more than 100 µM.

In the case of `O=C1c2ccccc2-c2c1c1ccccc1c(=O)n2CCCCl`, the GI50 is 10.3 µM and the TGI was 80.8 µM.

In the case of `CN1C(=O)/C(=C/c2c(Cl)n(C)c3ccccc23)c2ccccc21`, the GI50 is 9.2 µM.

With `CC1=C(C(=O)Nc2ccc(Cl)c(Cl)c2)C(c2cccc(Oc3ccccc3)c2)NC(=O)N1` (stereo not given), the GI50 was 6.65 µM and the TGI stood at 17.7 µM.

Consider `COC(=O)[C@H]1C=C[C@@H](C)n2c(=O)c3cc4ccccc4cc3c(=O)n21`, for which the TGI was more than 100 µM.

As to `O=C(O)c1ccc(OCc2ccccc2)c(Cl)c1`, the TGI is more than 100 µM.

On to `COc1cc(C=O)c(-c2cc(OC)c(OC)cc2C=O)cc1OC`, for which the TGI is more than 100 µM.

The molecule `N#CC(C(=O)C(=O)Nc1ccc(Cl)cc1)c1ccccc1` (stereo not given) yielded a TGI of more than 100 µM.

The molecule `CCOc1ccncc1[N+](=O)[O-]` came in with a TGI of more than 100 µM.

On to `COc1c[c]([Hg][O]C(C)=O)c(OC)c(NC(=O)CC(C)=O)[c]1[Hg][O]C(C)=O`, for which the GI50 was 13.6 µM and the TGI came out at 18.9 µM.

In turn, `Cc1nc2sc3c(c2c(=O)[nH]1)CCCC3` showed a TGI of more than 100 µM.

The molecule `O=C(/C=C/c1ccccc1Cl)NC1C=Nc2ccc([N+](=O)[O-])cc2NC1` (stereo not given) had a TGI of more than 100 µM.

On to `Cc1ccc(C)c(N=C2NC(=O)C(CC(=O)Nc3ccc(Cl)cc3Cl)S2)c1` (stereo not given), for which the TGI was more than 100 µM.

Molecule `Cc1cc(NS(=O)(=O)c2ccc(Nc3c4ccccc4nc4c(C(=O)N5CCN(CCO)CC5)ccc(Cl)c34)cc2)no1` displayed a TGI of more than 100 µM.

On to `COc1ccc(CCNC(=O)c2ccc(NC3=C(Cl)C(=O)N(Cc4ccccc4)C3=O)cc2)cc1OC`, for which the GI50 was 26.2 µM and the TGI was more than 100 µM.

For `Cc1nc([N+](=O)[O-])cn1CC(=N)N`, the TGI was more than 100 µM.

With `COC(=O)/C=C/c1c(CC=C(C)C)ncn1C`, the TGI is more than 100 µM.

Regarding `CC(C)C(=O)Nc1nc2c(ncn2C2OC(CO)C(O)C2O)c(=O)[nH]1` (stereo not given), the TGI is more than 100 µM.

As for `O=CN1CCN(CC(O)CN2CCCCC2)CC1` (stereo not given), the TGI was more than 100 µM.

`O=S(=O)(c1ccccc1)C1CN2OC1(S(=O)(=O)c1ccccc1)CC2c1ccc(Br)cc1` (stereo not given) had a TGI of more than 100 µM.

With `NCCSc1nc(-c2ccccc2)c(-c2ccccc2)o1`, the TGI is more than 100 µM.

As for `CC(=O)O[C@H]1CCC2[C@@H]3CCC4Nc5[nH]ncc5C[C@]4(C)C3CC[C@@]21C` (stereo not given in full), the TGI was more than 100 µM.

Molecule `Cc1cc(C)nc(NS(=O)(=O)c2ccc(NC(=O)c3cccc4c(Nc5ccc(S(N)(=O)=O)cc5)c5ccccc5nc34)cc2)n1` yielded a TGI of more than 67.4 µM.

For the molecule `Cc1cc(S(=O)(=O)O)c(NC(=O)C(=O)Cc2cc(=O)oc3cc(O)ccc23)cc1Cl`, the TGI is more than 100 µM.

Another assay deals with A498 renal. Briefly: NCI anticancer screen, dose series, 48 h.
In turn, `COc1ccc(-c2coc3c4c(ccc3c2=O)OCO4)cc1OC` registered a TGI of more than 100 µM.

Consider `O=C1c2ccccc2-c2c1c1ccccc1c(=O)n2CCCCl`, for which the GI50 is 7.88 µM and the TGI is 28.5 µM.

For the molecule `COC(=O)[C@H]1C=C[C@@H](C)n2c(=O)c3cc4ccccc4cc3c(=O)n21`, the TGI was more than 100 µM.

`O=C(O)c1ccc(OCc2ccccc2)c(Cl)c1` registered a TGI of more than 100 µM.

For `COc1cc(C=O)c(-c2cc(OC)c(OC)cc2C=O)cc1OC`, the TGI was more than 100 µM.

`N#CC(C(=O)C(=O)Nc1ccc(Cl)cc1)c1ccccc1` (stereo not given): the TGI was more than 100 µM.

With `CCOc1ccncc1[N+](=O)[O-]`, the TGI is more than 100 µM.

Consider `COc1c[c]([Hg][O]C(C)=O)c(OC)c(NC(=O)CC(C)=O)[c]1[Hg][O]C(C)=O`, for which the GI50 is 8.03 µM and the TGI is 22.6 µM.

For the molecule `Cc1nc2sc3c(c2c(=O)[nH]1)CCCC3`, the TGI is more than 100 µM.

Turning to `O=C(/C=C/c1ccccc1Cl)NC1C=Nc2ccc([N+](=O)[O-])cc2NC1` (stereo not given), the TGI was more than 100 µM.

For `Cc1ccc(C)c(N=C2NC(=O)C(CC(=O)Nc3ccc(Cl)cc3Cl)S2)c1` (stereo not given), the TGI was found to be 96.2 µM.

For `Cc1cc(NS(=O)(=O)c2ccc(Nc3c4ccccc4nc4c(C(=O)N5CCN(CCO)CC5)ccc(Cl)c34)cc2)no1`, the TGI was more than 100 µM.

On to `COc1ccc(CCNC(=O)c2ccc(NC3=C(Cl)C(=O)N(Cc4ccccc4)C3=O)cc2)cc1OC`, for which the GI50 is 27.2 µM and the TGI amounted to 72.1 µM.

Molecule `Cc1nc([N+](=O)[O-])cn1CC(=N)N` displayed a TGI of more than 100 µM.

Regarding `COC(=O)/C=C/c1c(CC=C(C)C)ncn1C`, the TGI was more than 100 µM.

Consider `CC(C)C(=O)Nc1nc2c(ncn2C2OC(CO)C(O)C2O)c(=O)[nH]1` (stereo not given), for which the TGI is more than 100 µM.

Molecule `O=CN1CCN(CC(O)CN2CCCCC2)CC1` (stereo not given) showed a TGI of more than 100 µM.

`O=S(=O)(c1ccccc1)C1CN2OC1(S(=O)(=O)c1ccccc1)CC2c1ccc(Br)cc1` (stereo not given) registered a TGI of more than 100 µM.

For the molecule `NCCSc1nc(-c2ccccc2)c(-c2ccccc2)o1`, the TGI was more than 100 µM.

`CC(=O)O[C@H]1CCC2[C@@H]3CCC4Nc5[nH]ncc5C[C@]4(C)C3CC[C@@]21C` (stereo not given in full) gave a TGI of more than 100 µM.

The molecule `Cc1cc(C)nc(NS(=O)(=O)c2ccc(NC(=O)c3cccc4c(Nc5ccc(S(N)(=O)=O)cc5)c5ccccc5nc34)cc2)n1` yielded a TGI of more than 100 µM.

As for `Cc1cc(S(=O)(=O)O)c(NC(=O)C(=O)Cc2cc(=O)oc3cc(O)ccc23)cc1Cl`, the TGI was more than 100 µM.

The test system of a further assay is M14 melanoma. The assay is described as follows: NCI anticancer screen, dose series, 48 h.
As for `COc1ccc(-c2coc3c4c(ccc3c2=O)OCO4)cc1OC`, the TGI is more than 100 µM.

Consider `O=C1c2ccccc2-c2c1c1ccccc1c(=O)n2CCCCl`, for which the GI50 was 35.5 µM and the TGI was more than 100 µM.

In the case of `CN1C(=O)/C(=C/c2c(Cl)n(C)c3ccccc23)c2ccccc21`, the GI50 is 2.81 µM and 1.32 µM; the TGI was 2.8 µM.

Regarding `COc1cc2c(c(OC)c1OC)-c1ncc3cc4c(cc3c1C2)OCO4`, the GI50 was 45.5 µM and the TGI is more than 100 µM.

In the case of `CC1=C(C(=O)Nc2ccc(Cl)c(Cl)c2)C(c2cccc(Oc3ccccc3)c2)NC(=O)N1` (stereo not given), the GI50 is 17.8 µM and the TGI is 31.7 µM.

Molecule `COC(=O)[C@H]1C=C[C@@H](C)n2c(=O)c3cc4ccccc4cc3c(=O)n21` displayed a TGI of more than 100 µM.

For `O=C(O)c1ccc(OCc2ccccc2)c(Cl)c1`, the TGI was more than 100 µM.

Regarding `COc1cc(C=O)c(-c2cc(OC)c(OC)cc2C=O)cc1OC`, the TGI was more than 100 µM.
